The values below come from US20180057505A1, “BICYCLIC HETEROARYL COMPOUNDS USEFUL AS INHIBITORS OF THE PAR-2 SIGNALING PATHWAY” (VERTEX PHARMACEUTICALS INCORPORATED, priority 2015, published 2018).

Common to all, as to type: cell-based
Experiment [1] concerns the target T1, PAR2 (HT-29 cells) (Homo sapiens, UniProt P55085).
T1 construct: host or cells: HT-29
T1 sequence (P55085 26-397): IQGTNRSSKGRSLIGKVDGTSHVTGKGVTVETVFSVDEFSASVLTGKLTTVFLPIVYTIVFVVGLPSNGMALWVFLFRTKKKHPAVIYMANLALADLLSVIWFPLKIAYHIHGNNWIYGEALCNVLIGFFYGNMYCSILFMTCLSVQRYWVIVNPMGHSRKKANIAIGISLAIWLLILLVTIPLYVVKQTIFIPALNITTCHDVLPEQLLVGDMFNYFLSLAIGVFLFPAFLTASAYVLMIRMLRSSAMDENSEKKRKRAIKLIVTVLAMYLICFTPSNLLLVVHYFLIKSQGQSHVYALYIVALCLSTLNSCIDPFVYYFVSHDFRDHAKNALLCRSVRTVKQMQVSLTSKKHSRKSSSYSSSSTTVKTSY
Nature of the experiment: Ca FLIPR TETRA assay, ANTAGONIST mode, activator 3.1 U/mL trypsin. Conditions: HT-29 cells, activator 3.1 U/mL trypsin. A digest of the protocol: (§1)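 Ca2+ flux by FLIPR Tetra in HT-29 cells after 30 min r.t. compound preincubation, followed by stimulation with SLIGKV 8 μM, thrombin 1 U/mL, trypsin 3.1 U/mL or UTP 0.6 μM (final). Cells were dye-loaded with calcium 5 beforehand; compound-only responses were also read.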

Experiment [2] relates to Thrombin-stimulated Ca2+ response in HT-29 cells. The experiment in a line: Ca FLIPR TETRA assay, ANTAGONIST mode, activator 1 U/mL Thrombin. Particulars: Homo sapiens; HT-29 cells, activator 1 U/mL Thrombin. In outline: as §1
Experiment [3] has as its target T1, PAR2 (HT-29 cells). Nature of the experiment: Ca FLIPR TETRA assay, ANTAGONIST mode, activator 8 μM SLIGKV. Conditions: HT-29 cells, activator 8 μM SLIGKV. In outline:
as §1

Experiment [4] concerns UTP-stimulated Ca2+ response in HT-29 cells. The experiment in a line: Ca FLIPR TETRA assay, ANTAGONIST mode, activator 0.6 μM UTP. Conditions: Homo sapiens; HT-29 cells, activator 0.6 μM UTP. In outline: as §1
[5] abbreviates: maximal antagonist concentration per Method (A: 0.1, 1 or 2 μM; B: 50 μM).
[6] abbreviates: Method A: maximal concentration of antagonist 0.1, 1 or 2 μM.

Consider `CC(C)(C)c1cc(-c2ccc(Cl)cc2)nc2cc(C(=O)N3CCN(c4ccc(C(=O)O)nc4)CC3(C)C)oc12` [Example I-274], for which the IC50 is 0.034 µM on PAR2 (HT-29 cells) [1] (setting [5]), > 2 µM in experiment [2], 0.061 µM on PAR2 (HT-29 cells) [3] (setting [5]) and > 2 µM in experiment [4].
In the case of `Cc1cc(-c2cc(C(C)(C)C)c3oc(C(=O)N4CCN(c5cn[nH]c5)C(=O)C4(C)C)cc3n2)ccc1Cl` [Example I-275, 4-[7-tert-butyl-5-(4-chloro-3-methyl-phenyl)furo[3,2-b]pyridine-2-carbonyl]-3,3-dimethyl-1-(1H-pyrazol-4-yl)piperazin-2-one], the IC50 at PAR2 (HT-29 cells) [1] (setting [5]) is 0.02 µM; in experiment [2], > 2 µM; on PAR2 (HT-29 cells) [3] (setting [5]), 0.016 µM; in experiment [4], > 2 µM.
`Cc1ccnc(N2CCN(C(=O)c3cc4nc(-c5ccc(Cl)c(F)c5)cc(C(C)(C)C)c4o3)C(C)(C)C2=O)n1` [Example I-276]: the IC50 on PAR2 (HT-29 cells) [1] (setting [5]) was 0.0018 µM; in experiment [2], > 2 µM; on PAR2 (HT-29 cells) [3] (setting [5]), 0.0012 µM; in experiment [4] it was > 2 µM.
Take `CC(C)(C)c1cc(-c2ccc(Cl)c(F)c2)nc2cc(C(=O)N3CCN(c4cc(C(=O)O)n[nH]4)C(=O)C3(C)C)oc12` [Example I-280, 5-[4-[7-tert-butyl-5-(4-chloro-3-fluoro-phenyl)furo[3,2-b]pyridine-2-carbonyl]-3,3-dimethyl-2-oxo-piperazin-1-yl]-1H-pyrazole-3-carboxylic acid]: the IC50 was 0.0525 µM on PAR2 (HT-29 cells) [1] (setting [5]), > 2 µM in experiment [2], 0.036 µM on PAR2 (HT-29 cells) [3] (setting [5]) and > 2 µM in experiment [4].
As to `CC1(C)CCC(c2cc(C(C)(C)C)c3oc(C(=O)N4CCN(c5ccc(C(=O)O)cn5)C(=O)C4(C)C)cc3n2)CC1` [Example I-281, 6-[4-[7-tert-butyl-5-(4,4-dimethylcyclohexyl)furo[3,2-b]pyridine-2-carbonyl]-3,3-dimethyl-2-oxo-piperazin-1-yl]pyridine-3-carboxylic acid], the IC50 was 0.0074 µM at PAR2 (HT-29 cells) [1] (setting [5]), 1.75 µM in experiment [2], 0.0036 µM on PAR2 (HT-29 cells) [3] (setting [5]) and > 2 µM in experiment [4].
Taken in the same sequence, the figures for `CC(C)(C)c1cc(-c2ccc(Cl)cc2)nc2cc(C(=O)N3CCN(c4ccc(C(=O)O)cn4)C(=O)C3(C)C)oc12` [Example I-282, 6-[4-[7-tert-butyl-5-(4-chlorophenyl)furo[3,2-b]pyridine-2-carbonyl]-3,3-dimethyl-2-oxo-piperazin-1-yl]pyridine-3-carboxylic acid] were 0.0083 µM, 1.6 µM, 0.0075 µM and 1.8 µM.
With `CC1(C)CCC(c2cc(C(C)(C)C)c3oc(C(=O)N4CCN(c5ccn[nH]5)C(=O)C4(C)C)cc3n2)CC1` [Example I-283, 4-[7-tert-butyl-5-(4,4-dimethylcyclohexyl)furo[3,2-b]pyridine-2-carbonyl]-3,3-dimethyl-1-(1H-pyrazol-5-yl)piperazin-2-one], the IC50 on PAR2 (HT-29 cells) [1] (setting [5]) was 0.0615 µM; in experiment [2], > 2 µM; at PAR2 (HT-29 cells) [3] (setting [5]), 0.018 µM; in experiment [4], > 2 µM.
For `Cc1cc(N2CCN(C(=O)c3cc4nc(-c5ccc(Cl)c(F)c5)cc(C(C)(C)C)c4o3)C(C)(C)C2=O)[nH]n1` [Example I-284, 4-[7-tert-butyl-5-(4-chloro-3-fluoro-phenyl)furo[3,2-b]pyridine-2-carbonyl]-3,3-dimethyl-1-(3-methyl-1H-pyrazol-5-yl)piperazin-2-one], the IC50 was 0.0145 µM at PAR2 (HT-29 cells) [1] (setting [5]), > 2 µM in experiment [2], 0.013 µM on PAR2 (HT-29 cells) [3] (setting [5]) and > 2 µM in experiment [4].
As to `Cc1cc(N2CCN(C(=O)c3cc4nc(-c5ccc(Cl)cc5)cc(C(C)(C)C)c4o3)C(C)(C)C2=O)[nH]n1` [Example I-285, 4-[7-tert-butyl-5-(4-chlorophenyl)furo[3,2-b]pyridine-2-carbonyl]-3,3-dimethyl-1-(3-methyl-1H-pyrazol-5-yl)piperazin-2-one], the IC50 is 0.0235 µM at PAR2 (HT-29 cells) [1] (setting [5]), > 2 µM in experiment [2], 0.028 µM on PAR2 (HT-29 cells) [3] (setting [5]) and > 2 µM in experiment [4].
As to `CC(C)(C)c1cc(-c2ccc(Cl)c(F)c2)nc2cc(C(=O)N3CCN(c4cc(C(=O)O)ccn4)CC3(C)C)oc12` [Example I-286], the 50% inhibitory concentration (IC50) on PAR2 (HT-29 cells) [1] (setting [5]) was 0.0026 µM; in experiment [2], > 2 µM; on PAR2 (HT-29 cells) [3] (setting [5]), 0.0014 µM; in experiment [4], > 2 µM.
As for `CC(C)(C)c1cc(-c2ccc(Cl)c(F)c2)nc2cc(C(=O)N3CCN(c4ccc(C(=O)O)cn4)CC3(C)C)oc12` [Example I-287], the IC50 on PAR2 (HT-29 cells) [1] (setting [5]) came to 0.0005 µM; in experiment [2], 1.8 µM; on PAR2 (HT-29 cells) [3] (setting [5]), 0.0003 µM; in experiment [4], 1.62 µM.
Turning to `CC(C)(C)c1cc(-c2ccc(Cl)c(F)c2)nc2cc(C(=O)N3CCN(c4nc(C(=O)O)co4)CC3(C)C)oc12` [Example I-289], the IC50 at PAR2 (HT-29 cells) [1] (setting [5]) was 0.0003 µM; in experiment [2] it was > 2 µM; at PAR2 (HT-29 cells) [3] (setting [5]) it was 0.0001 µM; in experiment [4] it was > 2 µM.
Take `Cn1cc(C(=O)O)c(C(=O)N2CCN(C(=O)c3cc4nc(C5CC6(CCC6)C5)cc(C(C)(C)C)c4o3)C(C)(C)C2)n1` [Example I-291]: the IC50 was 0.0011 µM at PAR2 (HT-29 cells) [1] (setting [5]), > 2 µM in experiment [2], 0.0007 µM on PAR2 (HT-29 cells) [3] (setting [5]) and > 2 µM in experiment [4].
Take `CC(C)(C)c1cc(C2CC3(CCC3)C2)nc2cc(C(=O)N3CCN(C(=O)CCC(=O)O)CC3(C)C)oc12` [Example I-292]: the 50% inhibitory concentration (IC50) at PAR2 (HT-29 cells) [1] (setting [5]) is 0.0071 µM; in experiment [2] it was > 2 µM; on PAR2 (HT-29 cells) [3] (setting [5]), 0.0035 µM; in experiment [4] it was > 2 µM.
Take `CCS(=O)(=O)NCC(=O)N1CCN(C(=O)c2cc3nc(C4CC5(CCC5)C4)cc(C(C)(C)C)c3o2)C(C)(C)C1` [Example I-293]: the IC50 on PAR2 (HT-29 cells) [1] (setting [5]) was 0.0067 µM; in experiment [2] it was > 2 µM; at PAR2 (HT-29 cells) [3] (setting [5]) it was 0.0054 µM; in experiment [4] it was > 2 µM.
On to `Cc1cc(C(=O)N2CCN(C(=O)c3cc4nc(C5CC6(CCC6)C5)cc(C(C)(C)C)c4o3)C(C)(C)C2)[nH]n1` [Example I-294], for which the IC50 at PAR2 (HT-29 cells) [1] (setting [5]) is 0.0036 µM; in experiment [2] it was > 2 µM; at PAR2 (HT-29 cells) [3] (setting [5]), 0.0015 µM; in experiment [4], > 2 µM.
Consider `Cc1n[nH]c(C(=O)N2CCN(C(=O)c3cc4nc(C5CC6(CCC6)C5)cc(C(C)(C)C)c4o3)C(C)(C)C2)n1` [Example I-295], for which the IC50 on PAR2 (HT-29 cells) [1] (setting [5]) was 0.022 µM; in experiment [2], > 2 µM; on PAR2 (HT-29 cells) [3] (setting [5]), 0.0073 µM; in experiment [4], > 2 µM.
Take `CC(C)(C)c1cc(C2CC3(CCC3)C2)nc2cc(C(=O)N3CCN(C(=O)[C@H]4C[C@@](C)(O)C4)CC3(C)C)oc12` [Example I-296]: the IC50 was 0.0007 µM at PAR2 (HT-29 cells) [1] (setting [5]), > 2 µM in experiment [2], 0.0007 µM at PAR2 (HT-29 cells) [3] (setting [5]) and > 2 µM in experiment [4].
Consider `CC(C)(C)c1cc(C2CC3(CCC3)C2)nc2cc(C(=O)N3CCN(C(=O)[C@H]4CC[C@@](C)(C(=O)O)CC4)CC3(C)C)oc12` [Example I-297], for which the IC50 at PAR2 (HT-29 cells) [1] (setting [5]) stood at 0.0002 µM; in experiment [2] it was 1.4 µM; at PAR2 (HT-29 cells) [3] (setting [5]), 0.0002 µM; in experiment [4], 1.2 µM.
For the molecule `CC(C)(C)c1cc(C2CC3(CCC3)C2)nc2cc(C(=O)N3CCN(C(=O)[C@H]4CC[C@](C)(C(=O)O)CC4)CC3(C)C)oc12` [Example I-298], the IC50 came out at 0.018 µM at PAR2 (HT-29 cells) [1] (setting [6]), 0.51 µM in experiment [2], 0.014 µM on PAR2 (HT-29 cells) [3] (setting [6]) and 0.51 µM in experiment [4].
Consider `CC(C)(C)c1cc(-c2ccc(Cl)c(F)c2)nc2cc(C(=O)N3CCC(CC(=O)O)CC3(C)C)oc12` (stereo not shown) [Example I-299], for which the IC50 on PAR2 (HT-29 cells) [1] (setting [6]) is 0.0002 µM; in experiment [2] it was > 2 µM; at PAR2 (HT-29 cells) [3] (setting [6]), 0.0002 µM; in experiment [4], 1.7 µM.
`CC1(C)CN(C(=O)[C@H]2C[C@@](C)(O)C2)CCN1C(=O)c1cc2nc(-c3ccc(Cl)c(F)c3)cc(C3(C#N)CC(F)(F)C3)c2o1` [Example I-300]: the IC50 was 0.0016 µM at PAR2 (HT-29 cells) [1] (setting [6]), > 2 µM in experiment [2], 0.0016 µM on PAR2 (HT-29 cells) [3] (setting [6]) and > 2 µM in experiment [4].
Turning to `CCC(CC)c1cc(-c2ccc(F)cc2)nc2cc(C(=O)N3CCN(c4cn[nH]c4)C(=O)C3(C)C)oc12` [Example I-301], the IC50 at PAR2 (HT-29 cells) [1] (setting [6]) is 0.004 µM; in experiment [2], > 2 µM; on PAR2 (HT-29 cells) [3] (setting [6]), 0.003 µM; in experiment [4], > 2 µM.
For `CCC(CC)c1cc(-c2ccc(F)cc2)nc2cc(C(=O)N3CCN(C#N)C(=O)C3(C)C)oc12` [Example I-302], the IC50 on PAR2 (HT-29 cells) [1] (setting [6]) was 0.0195 µM; in experiment [2], > 2 µM; at PAR2 (HT-29 cells) [3] (setting [6]) it was 0.014 µM; in experiment [4], > 2 µM.
As for `CC(C)(C)c1cc(C2CCC(Cl)(Cl)CC2)nc2cc(C(=O)N3CCN(C(=O)[C@H]4CC[C@@](C)(C(=O)O)CC4)CC3(C)C)oc12` [Example I-303], the IC50 was found to be 0.0006 µM at PAR2 (HT-29 cells) [1] (setting [6]), 1.3 µM in experiment [2], 0.0004 µM at PAR2 (HT-29 cells) [3] (setting [6]) and 1.8 µM in experiment [4].

Usually IC50 stands for the concentration that inhibits the measured activity by half.
